Measurements published in US8305585B2, “Fiber-optic assay apparatus based on phase-shift interferometry” (Pall Corporation, priority 2003, dated 2012).

What was measured:
anti-Lewis Y antibody = assay: Negative control: binding to immobilized irrelevant antibody; conditions: 200 μg/mL biotin
Description: Another negative control was carried out using an irrelevant antibody (anti-Lewis Y antibody from Calbiochem, San Diego Calif.; cat #434636) immobilized in an identical fashion to the anti-biotin antibody above. This immobilized antibody was exposed to a solution of 200 μg/mL biotin.

[1] = system: mouse anti-biotin antibody; assay: Small molecule binding to immobilized anti-biotin antibody on NHS-ester activated tip; conditions: biotin 200 μg/mL, sucrose 2 mg/mL in PBS; FIG. 10
Description: This example illustrates the binding of a low molecular weight molecule binding to an immobilized high molecular weight molecule. […] The tip was rinsed with PBS for 2 minutes. Following the PBS rinse, the tip was quenched with an aqueous solution of 100 μM ethanolamine pH 8.5 (Sigma-Aldrich Chemical Company, St Louis, Mo.; cat #E9508) for 5 minutes and then was rinsed again in PBS for 2 minutes.
Controls using a solution of sucrose (Sigma-Aldrich Chemical Company, St Louis, Mo.; cat #S8501) (2 mg/mL) and PBS were carried out on the second and the third fibers to determine baseline noise.

[2] = Sequential binding test on biotin-derivatized sensor tip; conditions: 50 μg/ml in PBS, 9 minutes; FIG. 6
Text: The two-layer configuration on the tip of an optic fiber is used for this test. The thickness of the first Ta2O5 layer is 25 nm and the thickness of the second SiO2 layer is 770 nm. The fiber was purchased from Ocean Optics (Dunedin, Fla.). It was manually cut into segments that are 40 mm long. Both ends of these segments were polished to standard mirror surface quality. The polishing method used here was exactly the same as those for optical lenses and mirrors. One surface of these fiber segments was outsourced to an optical coating house for Ta2O5 layer and SiO2 layer. This vendor employed an ion-beam assisted physical vapor deposition (IAPVD) coater made by […] is a commonly used coating technique for anti-reflection and optical filters. The experimental steps included the following (all steps are performed at room temperature unless otherwise noted): The fiber tip was coated with a polymer monolayer derivatized with biotin. The polymer monolayer was prepared using a biotinylated lipid (custom). This lipid was using to form a lipid monolayer on the surface of water solution. The monolayer was cross linked using UV light for 15minutes. Clean, dry fibers were then brought in contact with the floating thin film and the biotin polymer was adsorbed onto the fiber tip. The fibers were then dryed at 60° C. for 1 hour. […]

Row | binding to immobilized biotin (7th order valley phase shift) [2] | Compound | binding to irrelevant antibody (anti-Lewis Y antibody) | change in optical thickness on exposure (binding) [1]
1 |  | O=C(O)CCCC[C@@H]1SC[C@@H]2NC(=O)N[C@@H]21 [biotin] | lack of biotin binding | increase in optical thickness
2 |  | OC[C@H]1O[C@@](CO)(O[C@H]2O[C@H](CO)[C@@H](O)[C@H](O)[C@H]2O)[C@@H](O)[C@@H]1O [sucrose] |  | no detectable increase over baseline
3 | binding | streptavidin: streptavidin (Pierce Biotechnology, cat #21122) |  | 
